Key:
MelBEc = MelBEc (Escherichia coli, UniProt P02921); test: Trp to D2G FRET; assay type: binding; conditions: 10 μM D2G; 23 °C; GNG-3,14 extract; active site
MelBSt = MelBSt (Salmonella enterica, UniProt P30878); test: Trp to D2G FRET; assay type: binding; conditions: 10 μM D2G; 23 °C; DDM or GNG-3,14 extract; active site
β2AR = β2AR (Homo sapiens, UniProt P07550); test: radioligand binding, G-50 column; conditions: 10 nM [3H]-DHA; pH 7.5; 100 mM NaCl; room temperature; antagonist; labelled compound
Chain of β2AR (P07550 whole entry): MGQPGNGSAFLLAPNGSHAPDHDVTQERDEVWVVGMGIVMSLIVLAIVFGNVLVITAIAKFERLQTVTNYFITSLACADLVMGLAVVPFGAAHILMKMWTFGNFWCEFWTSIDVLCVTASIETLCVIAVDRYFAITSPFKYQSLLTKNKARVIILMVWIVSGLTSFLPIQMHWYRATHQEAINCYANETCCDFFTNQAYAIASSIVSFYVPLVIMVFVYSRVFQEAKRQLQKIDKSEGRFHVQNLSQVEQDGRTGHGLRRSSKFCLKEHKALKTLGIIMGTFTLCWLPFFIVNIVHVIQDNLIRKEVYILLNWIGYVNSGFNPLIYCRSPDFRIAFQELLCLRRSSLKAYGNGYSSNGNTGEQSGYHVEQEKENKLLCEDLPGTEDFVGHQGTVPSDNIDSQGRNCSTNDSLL

Chain of MelBEc (P02921 2-473): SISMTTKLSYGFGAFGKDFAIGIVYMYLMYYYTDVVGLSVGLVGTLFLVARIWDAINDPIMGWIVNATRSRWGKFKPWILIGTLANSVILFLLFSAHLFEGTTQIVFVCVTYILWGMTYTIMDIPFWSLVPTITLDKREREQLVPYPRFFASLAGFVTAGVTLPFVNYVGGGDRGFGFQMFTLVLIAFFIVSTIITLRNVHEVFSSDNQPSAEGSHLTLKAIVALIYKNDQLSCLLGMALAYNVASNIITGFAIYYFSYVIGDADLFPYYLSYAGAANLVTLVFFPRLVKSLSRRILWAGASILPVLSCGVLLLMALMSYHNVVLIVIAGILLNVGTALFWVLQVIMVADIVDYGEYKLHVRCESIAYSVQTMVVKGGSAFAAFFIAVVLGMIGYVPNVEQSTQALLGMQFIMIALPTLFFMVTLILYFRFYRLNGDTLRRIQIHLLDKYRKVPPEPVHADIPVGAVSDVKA
Chain of MelBSt (P30878 whole entry): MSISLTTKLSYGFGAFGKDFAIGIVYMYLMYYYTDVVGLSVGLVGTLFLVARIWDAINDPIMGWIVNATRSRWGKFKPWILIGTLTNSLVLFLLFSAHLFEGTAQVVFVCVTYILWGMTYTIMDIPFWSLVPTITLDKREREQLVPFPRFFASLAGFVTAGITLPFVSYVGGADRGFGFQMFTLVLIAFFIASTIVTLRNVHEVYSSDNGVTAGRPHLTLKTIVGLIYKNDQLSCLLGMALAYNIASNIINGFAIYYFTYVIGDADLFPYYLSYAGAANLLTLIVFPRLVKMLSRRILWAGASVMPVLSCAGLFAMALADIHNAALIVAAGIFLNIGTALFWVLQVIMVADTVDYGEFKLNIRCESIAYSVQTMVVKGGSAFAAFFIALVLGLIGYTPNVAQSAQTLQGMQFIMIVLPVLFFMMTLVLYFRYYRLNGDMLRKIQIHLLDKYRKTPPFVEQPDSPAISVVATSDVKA

Row | SMILES | Trp to D2G FRET (MelBEc) | Trp to D2G FRET (MelBSt) | radioligand binding, G-50 column (β2AR)
1 | CN(C)c1cccc2c(S(=O)(=O)NCCS[C@@H]3O[C@H](CO)[C@H](O)[C@H](O)[C@H]3O)cccc12 [D2G, 2’-(N-Dansyl)aminoalkyl-1-thio-β-D-galactopyranoside] | GNG-3,14-extracted MelBEc was functional under the same conditions | DDM or GNG-3,14-extracted MelBSt responded to addition of D^2G and melibiose | –
2 | CCCc1ccccc1OCC(O)CNC(C)C (stereo not drawn) [[3H]-dihydroalprenolol] | – | – | ligand binding assay using a radio-active antagonist ([^3H]-DHA)
